Tested on: Halo-PCNA U2OS cells
Test: Cell cycle phase assignment by machine learning model in Halo-PCNA U2OS cells
Type: cell-based
Settings: 2 mM Thymidine (S-phase block) or RO-3306 (G2-M block) per FIG. 20B legend
Procedure: Time-lapse microscopy was conducted on Halo-PCNA labeled with 50 nM JFX650, to achieve near-saturating labeling, for 12 hours at 12 frames per hour (FIG. 21A). A machine learning model was then trained using both manually assigned cell stages and time-based progression resulting in both a G1, early S, mid S, late S, G2 and mitosis classifier as well as a regression prediction across the continuum of the cell cycle (FIG. 21B). The predicted cell cycle classification performed well as compared to manual annotation (FIG. 21C). Clear progression of individual cells through the cell cycle was observed when regression prediction was plotted across the time series (FIG. 21D). […] When cells in each cell phase were analyzed separately, it became apparent that the slow-moving population of PCNA was exclusively found in cell predicted to be in S-phase and that there was a marked decrease in the fast-moving population (FIG. 20E). Mean diffusion coefficient of PCNA was then measured for 4,081 individual cells to characterize heterogeneity across the cell population, which is described in large part by cell cycle (FIG. 20F).
Cell cycle as provided above can be automatically determined using an image (e.g., an image of JF549-labeled PCNA). […]

SMILES | fraction of cells assigned to cell phases
O=C1NC(=NCc2cccs2)S/C1=C\c1ccc2ncccc2c1 [RO-3306] | expected enrichment in the fraction of cells assigned to the respective cell phases
Cc1cn([C@H]2C[C@H](O)[C@@H](CO)O2)c(=O)[nH]c1=O [thymidine] | expected enrichment in the fraction of cells assigned to the respective cell phases

Reference: US20260168987A1, “OBLIQUE LINE SCANNER SYSTEMS AND METHODS FOR HIGH THROUGHPUT SINGLE MOLECULE TRACKING IN LIVING CELLS” (EIKON THERAPEUTICS, INC., priority 2022, published 2026)
